The results in this text go back to patent publication US20100075907A1, “NEUROMEDIN U RECEPTOR AGONISTS AND USES THEREOF” (priority 2006, published 2010).

Starred links: 1 amine or outer side, 2 acyl side, 3 side chain; linkers in the order of their positions; H or OH if unused. Residues, ends and D or L forms follow the SMILES beside them. No end group written: not given here. *: point of attachment. X2 = CCN1C(=O)CC(SC[C@H](NC(C)=O)C(=O)NCCCOCCOCCOCCCN*)C1=O; Succinimide(1-Et,3-yl) = CCN1C(=O)CC(*)C1=O; Palmitoyl = CCCCCCCCCCCCCCCC(=O)*; Suc = O=C(CCC(=O)[*:2])[*:1]

One experiment has as its target T1, mouse NMUR1-ATG (Mus musculus, UniProt O55040).
T1 sequence (O55040 1-428): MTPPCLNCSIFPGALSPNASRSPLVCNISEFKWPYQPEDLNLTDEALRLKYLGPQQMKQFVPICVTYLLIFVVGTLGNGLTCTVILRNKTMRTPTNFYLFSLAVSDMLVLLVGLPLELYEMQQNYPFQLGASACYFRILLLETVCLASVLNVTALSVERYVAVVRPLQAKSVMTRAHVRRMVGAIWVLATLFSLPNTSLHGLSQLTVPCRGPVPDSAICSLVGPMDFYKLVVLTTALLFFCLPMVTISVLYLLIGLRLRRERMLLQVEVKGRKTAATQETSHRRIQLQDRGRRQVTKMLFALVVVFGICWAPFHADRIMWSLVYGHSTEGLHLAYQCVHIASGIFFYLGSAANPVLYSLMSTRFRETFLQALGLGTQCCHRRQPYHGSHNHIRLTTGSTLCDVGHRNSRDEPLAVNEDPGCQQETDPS
Description: FLIPR calcium mobilization assay, mouse NMUR1-ATG. It is filed as cell-based. Also on record: expressed in transfected cells; host or cells: FLP-In CHO or HEK-293 FLP-In cells (pcDNA5). The following applies: FLIPR, mouse NMUR1-ATG. From the text: Human, mouse or rat cDNAs encoding NMUR1 or NMUR2 (as described in Howard et al. Nature 406: 70-74 (2000) were subcloned in pcDNA5 (Invitrogen) and transfected into FLP-In CHO cells and HEK-293 FLP-In cells purchased from Invitrogen (Carlsbad, Calif.) using lipofectamine (Invitrogen). The Flp-In system allows integration and expression of a particular gene of interest at a specific genomic location utilizing the Flp recombinase from yeast. The transfected cells were selected by growth in medium containing 200 μg/mL hygromycin (Invitrogen). Populations were frozen at early passage numbers, and these stocks were used for further studies. Stable clones that expressed the mRNAs were identified functionally by FLIPR as well as by RT-PCR. […] Two different rodent NMUR1 cell lines were thus generated: one with the codon as predicted from the genomic databases and another cell line with an engineered methionine (ATG) as the start codon. Additionally, stable cell lines expressing the human receptors were generated in HEK-293/aeq17 cells which stably express the aequorin gene under the CMV promoter. The human NMUR2 cDNA was cloned into pcDNA3.1 and human NMUR1 was subcloned into pIRES-puro (Clontech, Mountain View, Calif.), after transfection cells were selected in media containing G418 and either hygromycin (NMUR2) or puromycin (NMUR1).
The NMU receptors signal primarily through Gαq/11 proteins; therefore calcium mobilization assays can be utilized for functional activity.
Stable cell lines expressing human and or rodent NMUR1 or human NMUR2 receptors were plated at a density of 12,000 cells per well overnight on poly-lysine coated 384-well black-walled plates. The following day, the media was removed from the plates and the cells were subsequently loaded with Fluo-3 (Molecular Probes), a calcium sensitive dye, diluted in FLIPR buffer (1× Hank's buffered saline containing 20 mM HEPES, 0.1% BSA, 2.5 mM probenecid (Sigma) and 1.6 mM TR40). All reagents are from Invitrogen unless otherwise noted. Peptide stocks were resuspended in DMSO at a stock concentration of 2 mM and diluted in FLIPR buffer on the day of the experiment to a 4 μM working stock solution.
After a 90 minute incubation at room-temperature, cell plates were loaded onto a FLIPR (Molecular Devices) to monitor cellular fluorescence (excitation=488 nm; emission=540 nm) before and after compound/peptide addition. Eight to twelve point dose responses were tested on NMUR-expressing cell lines using FLIPR with 1 μM peptide as the highest dose. The response after peptide addition was taken as the maximum fluorescence units minus the fluorescence immediately prior to stimulation for each well. EC50 values were calculated using GraphPad Prism (San Diego, Calif.) software.
In vitro responses of Neuromedin U receptor agonists (NMU1 to NMU25) in the FLIPR assay for human (Table 3), mouse (Table 4) and rat (Table 5) NMUR1 and NMUR2. EC50s are reported in nM values. Percent activity refers to the maximum response at 1 μM compared to the hNMU-25 response at the same concentration. NT=not tested.
On to “Pam-C2FRVDEEFQSPFASQSRGYFLFRPRN-CONH2 ({Palmitoyl-C(PEG 40 kDa)}-FRVDEEFQSPFASQSRGYFLFRPRN-NH2) [NMU25, Pam = palmitoyl; C2 = Cys(PEG)240 kDa]”, for which the EC50 stood at 10.2 nM.

Turning to “Ac-C2FRVDEEFQSPFASQSRGYFLFRPRN-CONH2 [NMU9] ({Ac-C(PEG 40 kDa)}-FRVDEEFQSPFASQSRGYFLFRPRN-NH2) [C2 = Cys(PEG)240 kDa from Nektar (mPEG2-MAL-40 k)]”, the EC50 is 45.7 nM.

Turning to “Ac-C4-C4-FRVDEEFQSPFASQSRGYFLFRPRN-CONH2 ({Ac-C(PEG 20 kDa)-C(PEG 20 kDa)}-FRVDEEFQSPFASQSRGYFLFRPRN-NH2) [NMU23, C4 = Cys(PEG)20 kDa]”, the concentration for a half-maximal effect (EC50) came out at 14 nM.

As for “Ac-C2FQSPFASQSRGYFLFRPRN-CONH2 ({Ac-C(PEG 40 kDa)}-FQSPFASQSRGYFLFRPRN-NH2; not fully specified; printed as Ac-C2FQSPFASQSRGYFLFRPRN-CONH2) [NMU20, C2 = Cys(PEG)240 kDa]”, the EC50 was 12.7 nM.

For the compound “Ac-C4FRVDEEFQSPFASQSRGYFLFRPRN-CONH2 ({Ac-C(PEG 20 kDa)}-FRVDEEFQSPFASQSRGYFLFRPRN-NH2) [NMU21, C4 = Cys(PEG)20 kDa]”, the EC50 worked out at 9.1 nM.

Still in this experiment, the particulars now being: maximum response at 1 μM compared to hNMU-25; mouse NMUR1-ATG.
Regarding `CCN1C(=O)CC(SC[C@H](NC(C)=O)C(=O)N[C@@H](Cc2ccccc2)C(=O)N[C@@H](CCCNC(=N)N)C(=O)N[C@H](C(=O)N[C@@H](CC(=O)O)C(=O)N[C@@H](CCC(=O)O)C(=O)N[C@@H](CCC(=O)O)C(=O)N[C@@H](Cc2ccccc2)C(=O)N[C@@H](CCC(N)=O)C(=O)N[C@@H](CO)C(=O)N2CCC[C@H]2C(=O)N[C@@H](Cc2ccccc2)C(=O)N[C@@H](C)C(=O)N[C@@H](CO)C(=O)N[C@@H](CCC(N)=O)C(=O)N[C@@H](CO)C(=O)N[C@@H](CCCNC(=N)N)C(=O)NCC(=O)N[C@@H](Cc2ccc(O)cc2)C(=O)N[C@@H](Cc2ccccc2)C(=O)N[C@@H](CC(C)C)C(=O)N[C@@H](Cc2ccccc2)C(=O)N[C@@H](CCCNC(=N)N)C(=O)N2CCC[C@H]2C(=O)N[C@@H](CCCNC(=N)N)C(=O)N[C@@H](CC(N)=O)C(N)=O)C(C)C)C1=O` (some centres unmarked) [NMU8] (Ac-C(Succinimide(1-Et,3-yl))FRVDEEFQSPFASQSRGYFLFRPRN-NH2), the “% Activity” value was 100%.

Take `CCCCCCCCCCCCCCCC(=O)N[C@@H](CSC1CC(=O)N(CC)C1=O)C(=O)N[C@@H](Cc1ccccc1)C(=O)N[C@@H](CCCNC(=N)N)C(=O)N[C@H](C(=O)N[C@@H](CC(=O)O)C(=O)N[C@@H](CCC(=O)O)C(=O)N[C@@H](CCC(=O)O)C(=O)N[C@@H](Cc1ccccc1)C(=O)N[C@@H](CCC(N)=O)C(=O)N[C@@H](CO)C(=O)N1CCC[C@H]1C(=O)N[C@@H](Cc1ccccc1)C(=O)N[C@@H](C)C(=O)N[C@@H](CO)C(=O)N[C@@H](CCC(N)=O)C(=O)N[C@@H](CO)C(=O)N[C@@H](CCCNC(=N)N)C(=O)NCC(=O)N[C@@H](Cc1ccc(O)cc1)C(=O)N[C@@H](Cc1ccccc1)C(=O)N[C@@H](CC(C)C)C(=O)N[C@@H](Cc1ccccc1)C(=O)N[C@@H](CCCNC(=N)N)C(=O)N1CCC[C@H]1C(=O)N[C@@H](CCCNC(=N)N)C(=O)N[C@@H](CC(N)=O)C(N)=O)C(C)C` (some centres unmarked) [NMU24] (Palmitoyl-C(Succinimide(1-Et,3-yl))FRVDEEFQSPFASQSRGYFLFRPRN-NH2): the “% Activity” value is listed as 81.4%.

On to `CCN1C(=O)CC(SC[C@H](NC(C)=O)C(=O)N[C@@H](C)C(=O)N[C@@H](CO)C(=O)N[C@@H](CCC(N)=O)C(=O)N[C@@H](CO)C(=O)N[C@@H](CCCNC(=N)N)C(=O)NCC(=O)N[C@@H](Cc2ccc(O)cc2)C(=O)N[C@@H](Cc2ccccc2)C(=O)N[C@@H](CC(C)C)C(=O)N[C@@H](Cc2ccccc2)C(=O)N[C@@H](CCCNC(=N)N)C(=O)N2CCC[C@H]2C(=O)N[C@@H](CCCNC(=N)N)C(=O)N[C@@H](CC(N)=O)C(N)=O)C1=O` (some centres unmarked) [NMU17] (Ac-C(Succinimide(1-Et,3-yl))ASQSRGYFLFRPRN-NH2), for which the “% Activity” value was determined as 100%.

On to “Ac-C2FRVDEEFQSPFASQSRGYFLFRPRN-CONH2 [NMU9] ({Ac-C(PEG 40 kDa)}-FRVDEEFQSPFASQSRGYFLFRPRN-NH2) [C2 = Cys(PEG)240 kDa from Nektar (mPEG2-MAL-40 k)]”, for which the “% Activity” value came to 95.0%.

For the compound `CCN1C(=O)CC(SC[C@H](NC(C)=O)C(=O)N[C@@H](CSC2CC(=O)N(CC)C2=O)C(=O)N[C@@H](Cc2ccccc2)C(=O)N[C@@H](CCCNC(=N)N)C(=O)N[C@H](C(=O)N[C@@H](CC(=O)O)C(=O)N[C@@H](CCC(=O)O)C(=O)N[C@@H](CCC(=O)O)C(=O)N[C@@H](Cc2ccccc2)C(=O)N[C@@H](CCC(N)=O)C(=O)N[C@@H](CO)C(=O)N2CCC[C@H]2C(=O)N[C@@H](Cc2ccccc2)C(=O)N[C@@H](C)C(=O)N[C@@H](CO)C(=O)N[C@@H](CCC(N)=O)C(=O)N[C@@H](CO)C(=O)N[C@@H](CCCNC(=N)N)C(=O)NCC(=O)N[C@@H](Cc2ccc(O)cc2)C(=O)N[C@@H](Cc2ccccc2)C(=O)N[C@@H](CC(C)C)C(=O)N[C@@H](Cc2ccccc2)C(=O)N[C@@H](CCCNC(=N)N)C(=O)N2CCC[C@H]2C(=O)N[C@@H](CCCNC(=N)N)C(=O)N[C@@H](CC(N)=O)C(N)=O)C(C)C)C1=O` (some centres unmarked) [NMU22] (Ac-C(Succinimide(1-Et,3-yl))C(Succinimide(1-Et,3-yl))FRVDEEFQSPFASQSRGYFLFRPRN-NH2), the “% Activity” value is 100%.

Regarding H-FRVDEEFQSPFASQSRPYFLFRPRN-NH2 [NMU4], the “% Activity” value was 100%.

For the compound `CCN1C(=O)CC(SC[C@H](NC(C)=O)C(=O)NCCCOCCOCCOCCCNC(=O)CCC(=O)N[C@@H](Cc2ccccc2)C(=O)N[C@@H](CC(C)C)C(=O)N[C@@H](Cc2ccccc2)C(=O)N[C@@H](CCCNC(=N)N)C(=O)N2CCC[C@H]2C(=O)N[C@@H](CCCNC(=N)N)C(=O)N[C@@H](CC(N)=O)C(N)=O)C1=O` (some centres unmarked) [NMU15, Ac-C1-Ttds-FLFRPRN-CONH2] ({X2-Suc}-FLFRPRN-NH2), the “% Activity” value is recorded as 100%.

In the case of `CCN1C(=O)CC(SC[C@H](NC(C)=O)C(=O)N[C@@H](Cc2ccccc2)C(=O)N[C@@H](CCC(N)=O)C(=O)N[C@@H](CO)C(=O)N2CCC[C@H]2C(=O)N[C@@H](Cc2ccccc2)C(=O)N[C@@H](C)C(=O)N[C@@H](CO)C(=O)N[C@@H](CCC(N)=O)C(=O)N[C@@H](CO)C(=O)N[C@@H](CCCNC(=N)N)C(=O)NCC(=O)N[C@@H](Cc2ccc(O)cc2)C(=O)N[C@@H](Cc2ccccc2)C(=O)N[C@@H](CC(C)C)C(=O)N[C@@H](Cc2ccccc2)C(=O)N[C@@H](CCCNC(=N)N)C(=O)N2CCC[C@H]2C(=O)N[C@@H](CCCNC(=N)N)C(=O)N[C@@H](CC(N)=O)C(N)=O)C1=O` (some centres unmarked) [NMU19] (Ac-C(Succinimide(1-Et,3-yl))FQSPFASQSRGYFLFRPRN-NH2), the “% Activity” value is given as 100%.

Consider Ac-FRVDEEFQSPFASQSRPYFLFRPRN-NH2 [NMU5], for which the “% Activity” value worked out at 100%.

Consider Ac-FRVDEEFQSPFASQSRGYFLFRPRN-NH2 [NMU2], for which the “% Activity” value is on record as 100%.

Turning to GYFLFRPRN-NH2 [NMU3], the “% Activity” value was determined as 100%.

For the compound `CCN1C(=O)CC(SC[C@H](NC(C)=O)C(=O)NCC(=O)N[C@@H](Cc2ccc(O)cc2)C(=O)N[C@@H](Cc2ccccc2)C(=O)N[C@@H](CC(C)C)C(=O)N[C@@H](Cc2ccccc2)C(=O)N[C@@H](CCCNC(=N)N)C(=O)N2CCC[C@H]2C(=O)N[C@@H](CCCNC(=N)N)C(=O)N[C@@H](CC(N)=O)C(N)=O)C1=O` (some centres unmarked) [NMU6] (Ac-C(Succinimide(1-Et,3-yl))GYFLFRPRN-NH2), the “% Activity” value was found to be 100%.
